pIC50: −log10 of the molar value. Like-named read-outs stand apart in the source and are kept apart here.
Legend:
PLK2 = PLK2 (Homo sapiens (Human), UniProt Q9NYY3); assay: PLK2 kinase activity in vitro, 33P isotope-labeled kinase activity test; assay type: biochemical; details: 33P-ATP 30 μM, PLK2 15 nM
Method: (§1) The ^33P isotope-labeled kinase activity test (Reaction Biology Corp) was used to determine the IC50 value to evaluate the inhibitory ability of the test compound to the human PLK family protein kinase PLK2/PLK3/PLK4.
(§2) Buffer conditions: 20 mM HEPES (pH 7.5), 10 mM MgC2, 1 mM EGTA, 0.01% Brij35, 0.02 mg/ml BSA, 0.1 mM Na3VO4, 2 mM DTT, 1% DMSO.
(§3) Test steps: At room temperature, the compounds to be tested were dissolved in DMSO to prepare a 10 mM solution for use. The substrate Casein was dissolved in the freshly prepared buffer (with a final concentration of 20 μM), and the tested PLK2/PLK3/PLK4 kinases (with a final concentration of 15/10/150 nM, respectively) were added thereto and mixed well. The acoustic wave pipetting system Echo 550 was used to add the mother solution of the test compound dissolved in DMSO to the above mixed reaction mixture according to the set final concentration gradient (the highest final concentration was 1 μM, 3-fold dilution, 10 gradients). After incubation at room temperature for 20 minutes, ^33P-ATP (with a final concentration of 30/50/10 μM, respectively) was added, then after incubation at room temperature for 120 minutes, the reaction mixture was spotted on P81 ion exchange filter paper (Whatman #3698-915).

HCT116 cells = assay: HCT116 cytological activity in vitro (3D CellTiter-Glo proliferation); assay type: cell-based, human; details: Homo sapiens, HCT-116, 120 h, 5 days culture, ultra-low adsorption plates
Method: McCoy's 5A medium, penicillin/streptomycin antibiotics was purchased from Vicente, and fetal bovine serum was purchased from Biosera. 3D CellTiter-Glo (cell viability chemiluminescence assay reagent) reagent was purchased from Promega. HCT116 cell line was purchased from Nanjing Cobioer Biosciences Co., Ltd. Envision multimode microplate reader (PerkinElmer).
HCT116 cells were seeded in ultra-low adsorption 96-well U-plates, 80 μL of cell suspension per well, which contained 1000 HCT116 cells. Cell plates were cultured overnight in a carbon dioxide incubator.
The compound to be tested was 5-fold diluted to the 9th concentration with a pipette, that is, diluted from 2 mM to 5.12 nM, and a double-well experiment was set up. 78 μL of medium was added to the intermediate plate, and then 2 μL of each well of the gradient diluted compound was transferred to the intermediate plate according to the corresponding position, 20 μL of each well was transferred to the cell plate after mixing well. Compound concentrations transferred to cell plates ranged from 10 μM to 0.0256 nM. Cell plates were cultured in a carbon dioxide incubator for 5 days. Another cell plate was prepared, and the signal value was read as the maximum value (Max value in the following equation) on the day of drug addition to participate in data analysis.
Every 100 μL of cell viability chemiluminescent detection reagent was added to the cell plate, and incubated at room temperature for 10 minutes to stabilize the luminescent signal. A multimode microplate reader was used to read.
The equation (Sample−Min)/(Max−Min)*100% was used to convert the original data into an inhibition rate, and the value of IC50 can be obtained by curve fitting with four parameters (“log(inhibitor) vs. response in GraphPad Prism—Variable slope” mode). Table 3 provides the inhibitory activity of the compounds of the present disclosure against the proliferation of HCT116 cells.

PLK4 = PLK4 (Homo sapiens (Human), UniProt O00444); assay: PLK4 kinase activity in vitro, 33P isotope-labeled kinase activity test; assay type: biochemical; details: 33P-ATP 10 μM, PLK4 150 nM
Sequence of PLK4 (O00444 whole entry): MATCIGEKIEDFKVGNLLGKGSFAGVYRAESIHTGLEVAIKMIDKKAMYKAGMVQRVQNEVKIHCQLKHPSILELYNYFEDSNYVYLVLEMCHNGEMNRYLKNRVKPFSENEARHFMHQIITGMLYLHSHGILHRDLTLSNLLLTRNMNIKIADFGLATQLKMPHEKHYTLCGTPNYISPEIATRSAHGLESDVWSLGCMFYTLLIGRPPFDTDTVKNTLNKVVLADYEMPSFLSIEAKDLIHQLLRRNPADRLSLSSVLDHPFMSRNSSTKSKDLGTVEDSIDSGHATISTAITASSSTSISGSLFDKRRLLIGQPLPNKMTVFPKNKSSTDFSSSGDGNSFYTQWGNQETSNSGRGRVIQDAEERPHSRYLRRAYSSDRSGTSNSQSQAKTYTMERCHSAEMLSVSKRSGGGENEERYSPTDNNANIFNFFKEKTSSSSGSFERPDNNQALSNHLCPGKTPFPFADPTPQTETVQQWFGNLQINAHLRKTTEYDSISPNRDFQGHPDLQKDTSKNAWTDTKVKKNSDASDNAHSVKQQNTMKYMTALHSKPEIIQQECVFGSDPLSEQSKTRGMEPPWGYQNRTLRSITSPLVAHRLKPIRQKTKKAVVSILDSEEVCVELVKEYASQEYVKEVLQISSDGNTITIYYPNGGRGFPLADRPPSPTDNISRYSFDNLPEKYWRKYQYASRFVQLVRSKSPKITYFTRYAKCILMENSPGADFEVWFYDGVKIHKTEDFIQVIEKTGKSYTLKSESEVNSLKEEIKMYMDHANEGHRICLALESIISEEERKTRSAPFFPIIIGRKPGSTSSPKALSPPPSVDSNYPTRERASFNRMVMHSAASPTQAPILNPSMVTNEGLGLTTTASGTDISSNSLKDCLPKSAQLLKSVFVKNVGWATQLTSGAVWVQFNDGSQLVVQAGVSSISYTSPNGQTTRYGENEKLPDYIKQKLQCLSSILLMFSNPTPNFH
Method: as §1, §2, §3

[1] = Pharmacokinetic study in CD-1 male mice by oral administration and intravenous injection; assay type: in vivo; details: mouse, plasma; for AUC(0-t): read-out: Area under the plasma concentration-time curve AUC0-24 h
From the text: The purpose of this experiment is to study the pharmacokinetics of the test compound in the plasma of CD-1 male mice after intravenous injection and oral administration.
Intravenous injection group: an appropriate amount of the test compound was weighed and dissolved in 20% SBE-b-CD aqueous solution and the pH was adjusted to 4 to 5 with 6 M hydrochloric acid, and the mixture was vortexed for 2, minutes to obtain a clear solution, and then pH was adjusted around 7 with 5 N sodium hydroxide, and the mixture was vortexed for 1 minute to prepare a 1.5 mg/mL clear solution, which was filtered through a 0.22 μm microporous membrane for later use. CD-1 male mice from 6 to 10 weeks old were selected and given a solution of the test compound intravenously. Samples were collected at 0.083, 0.25, 0.5, 1, 2, 4, 6, 8, and 24 hours.
Oral administration group: an appropriate amount of the test compound was weighed and dissolved in 20% SBE-b-CD aqueous solution, and the pH was adjusted to 3 to 4 with 6 M hydrochloric acid, and the mixture was vortexed for 2, minutes to obtain a clear solution, and then pH was adjusted around 7 with 5 N sodium hydroxide, and mixture was vortexed for 1 minute to prepare a 2.0 mg/mL clear solution for later use. CD-1 male mice between 6 and 10 weeks of age were selected and given the test compounds orally. Samples were collected at 0.25, 0.5, 1, 2, 4, 6, 8, 10, and 24 hours.
Approximately 50 μL of whole blood was collected through the jugular vein at each time point for plasma preparation for concentration determination by high performance liquid chromatography-tandem mass spectrometry (LC-MS/MS). All animals were euthanized under CO2 anesthesia after collecting the PK samples at the last time point. The plasma concentration was processed using the non-compartmental model of WinNonlin™ Version 6.3 (Pharsight, Mountain View, CA) pharmacokinetic software, and the pharmacokinetic parameters were calculated using the linear logarithmic trapezoidal method, and the experimental results are shown in Table 4.

PLK3 = PLK3 (Homo sapiens (Human), UniProt Q9H4B4); assay: PLK3 kinase activity in vitro, 33P isotope-labeled kinase activity test; assay type: biochemical; details: 33P-ATP 50 μM, PLK3 10 nM
Sequence of PLK3 (Q9H4B4 whole entry): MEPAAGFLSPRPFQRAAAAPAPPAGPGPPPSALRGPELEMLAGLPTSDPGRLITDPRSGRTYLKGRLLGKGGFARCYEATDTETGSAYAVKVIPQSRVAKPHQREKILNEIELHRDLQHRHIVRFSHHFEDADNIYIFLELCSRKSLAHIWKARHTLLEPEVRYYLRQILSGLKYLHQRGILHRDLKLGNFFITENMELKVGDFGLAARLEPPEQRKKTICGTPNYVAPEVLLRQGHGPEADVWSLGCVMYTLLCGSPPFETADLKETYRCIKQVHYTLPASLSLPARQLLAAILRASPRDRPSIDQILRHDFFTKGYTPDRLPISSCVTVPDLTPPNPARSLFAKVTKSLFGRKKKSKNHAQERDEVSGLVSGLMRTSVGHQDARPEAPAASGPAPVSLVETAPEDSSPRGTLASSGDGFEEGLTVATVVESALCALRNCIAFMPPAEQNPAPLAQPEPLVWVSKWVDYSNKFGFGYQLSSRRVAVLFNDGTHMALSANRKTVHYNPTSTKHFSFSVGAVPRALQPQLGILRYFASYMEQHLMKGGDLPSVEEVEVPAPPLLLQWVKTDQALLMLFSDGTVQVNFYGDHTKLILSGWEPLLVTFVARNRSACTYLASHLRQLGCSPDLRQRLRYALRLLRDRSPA
Method: as §1, §2, §3

[2] = test system: human colon cancer HCT116 cells subcutaneous xenograft tumor; assay: In vivo pharmacodynamic study, subcutaneous xenograft tumor model of human colon cancer HCT116 cells; parameters: species or system BALB/c Nude mouse; details: tumor volume on day 22 after dosing
Method: In this experiment, human colon cancer HCT116 cells were subcutaneously transplanted into BALB/c Nude mouse model to evaluate the antitumor effect of the test compound in vivo.
HCT116 cell culture: 10% fetal calf serum was added to McCoy's 5A medium and cultured in 37° C. 5% CO2 cell incubator. When the cell saturation reached 80% to 90% and the number reached the requirement, cells were collected, counted and inoculated subcutaneously into BALB/c Nude mice (female, 6 to 7 weeks old)
When the tumors grew to a certain size, the animals with tumor volumes that were too large, too small, or with irregular tumor shapes were eliminated, and animals with tumor volumes ranging from 103.12 to 174.35 mm^3 were selected. According to the tumor volume, the animals were divided into 6 groups by random block method, and each group was composed of 6 mice wherein the average volume of the tumor was about 147.12 mm^3 , and the experimental grouping and dosing regimen were shown in Table 5 below. The health status and death of the animals were monitored every day. Routine inspections included observation of tumor growth and the effects of drug treatment on the daily behavior of the animals, such as behavioral activities, food and water intake, body weight changes (measured twice a week), tumor size (tumor volume was measured twice a week), appearance signs or other abnormal conditions.
The formula for calculating tumor volume (TV) was: ½×a×b^2, where a and b were the measured length and width of the tumor, respectively. The formula for calculating the tumor inhibition rate TGI (%) was: TGI (%)=[1−(average tumor volume at the end of administration of a certain treatment group−average tumor volume at the beginning of administration of this treatment group)/(average tumor volume at the end of treatment of the solvent control group−average tumor volume at the beginning of treatment in solvent control group)]×100%.
In this study, the experimental data were expressed as Mean±SEM. Statistical analysis was based on the data of RTV at the end of the experiment using IBM SPSS Statistics software. The comparison between two groups was analyzed by T test, and the comparison between three or more groups was analyzed by one-way ANOVA. If the variances were homogeneous (the F value had no significant difference), the Tukey's method was used for analysis. If the variances were not homogeneous (the F value had significant differences), and the Games-Howell method was used for testing. p<0.05 was considered as a significant difference.

Sequence of PLK2 (Q9NYY3 whole entry): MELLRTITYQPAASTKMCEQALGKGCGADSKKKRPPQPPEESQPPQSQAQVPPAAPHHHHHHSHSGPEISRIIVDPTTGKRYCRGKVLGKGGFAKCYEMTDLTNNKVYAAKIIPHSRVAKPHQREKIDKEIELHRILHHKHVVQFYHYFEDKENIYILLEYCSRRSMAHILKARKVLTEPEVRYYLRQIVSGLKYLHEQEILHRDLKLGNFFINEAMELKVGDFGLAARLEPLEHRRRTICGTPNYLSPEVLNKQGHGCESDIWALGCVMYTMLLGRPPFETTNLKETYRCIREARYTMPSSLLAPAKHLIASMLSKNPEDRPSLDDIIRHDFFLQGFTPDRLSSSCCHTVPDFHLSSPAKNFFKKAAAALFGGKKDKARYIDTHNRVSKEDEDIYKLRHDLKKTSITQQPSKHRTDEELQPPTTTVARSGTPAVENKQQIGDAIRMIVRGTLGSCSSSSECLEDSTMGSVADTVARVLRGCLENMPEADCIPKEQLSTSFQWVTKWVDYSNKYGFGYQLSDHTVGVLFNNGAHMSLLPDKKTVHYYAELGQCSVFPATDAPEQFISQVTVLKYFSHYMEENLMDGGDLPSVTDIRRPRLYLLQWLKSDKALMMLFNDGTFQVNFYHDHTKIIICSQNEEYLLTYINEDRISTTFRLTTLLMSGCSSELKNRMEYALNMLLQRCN

- pIC50 (PLK2): < 5.00
- pIC50 (HCT116 cells): 7.57
- pIC50 (PLK4): < 5.00
- Vd ([1]; IV, 0.5 mg/kg, read-out: Apparent volume of distribution Vdss): 3.37 L/kg
- AUC(0-t) ([1]; IV, 0.5 mg/kg): 0.41 µM·h
- clearance ([1]; IV, 0.5 mg/kg, read-out: Clearance CL): 37.8 mL/min/kg
- half-life ([1]; IV, 0.5 mg/kg, read-out: Half-life T½ (converted)): 1.47 h
- AUC(0-t) ([1]; PO, 2.0 mg/kg): 1.05 µM·h
- Cmax ([1]; PO, 2.0 mg/kg, read-out: Peak concentration Cmax): 386 nM
- Tmax ([1]; PO, 2.0 mg/kg, read-out: Peak time Tmax): 0.75 h
- bioavailability ([1]; PO 2.0 mg/kg vs IV 0.5 mg/kg, read-out: Bioavailability F): 66.4%
- pIC50 (PLK3): < 5.00
Structure (SMILES): CSc1sc(C(N)=O)c2c1-c1nc(Nc3cc(N4CCN(C)CC4)ccc3OC(F)(F)F)ncc1CC2 [Compound 1]
- TGI ([2]; 30 mg/kg PO QD (5 days on, 2 days off)): 72.9%
- TGI ([2]; 45 mg/kg PO QD (5 days on, 2 days off)): 87.3%
